Measured values published in patent publication US12035717B1, “2-OXO-2-({2-[(phenylcarbamoyl)oxy]ethyl} amino)ethyl phenylcarbamate as an eco-friendly insecticidal agent against spodoptera littoralis (boisd.)” (priority 2024, dated 2024).
Converted amounts (≈) assume the structure as drawn.

Tested on: Spodoptera littoralis larvae (laboratory strain of cotton leafworm)
Assay: Insecticidal leaf dip bioassay on S. littoralis larvae
Conditions: for Toxicity index % / Toxicity ratio: 72 hours; for Toxicity index %: fenoxycarb = 100; for Toxicity ratio: fenoxycarb's LC50/compound's LC50 * 100; for LC50: after 72 hours of treatment, castor leaf dip
[1] = Spodoptera littoralis, in Gossypium hirsutum, foliar, 72 h, 2nd instar larvae
[2] = Spodoptera littoralis, in Gossypium hirsutum, foliar, 72 h, 4th instar larvae

Procedure: Five concentrations (200, 100, 50, 25, 12.5 ppm) were designed for this synthetic compound and the reference fenoxycarb's compound as the dynamic ingredients based on ppm via diluting the commercial formulation.
In this experiment, the synthetic compound was tested for its insecticidal bioactivity using the industry-standard leaf dip bioassay techniques. […] Until usage, the stocks were kept in a refrigerator. The target substance test results were noted & the concentrations needed to destroy 50% (LC50) of S. littoralis larvae were calculated. The target compound was employed in five different concentrations, & 0.1% Tween 80 was employed as a surfactant. Castor bean leaf discs (nine centimeters in diameter) were dipped in the concentration under test for ten seconds, then fed to 2th & 4th larvae, which were roughly the same size and housed in glass jars (five pound). Each action carried out 3 times with ten larvae each. The mortality equalized via Abbott's formula. Calculations of mortality setback line were measurably rummage via probity analysis. Harmfulness index was strongminded via sun equations. The mortality results of larval insect were estimated through employing probit analysis through a statistics (LDP-line) equation which estimate the LC50 values with 95% fiducially limits of lower, upper confidence limit and slope.

| Compound | Toxicity index % (2nd instar larvae) | Toxicity ratio (4th instar larvae) | LC50 [1] | LC50 [2] | LC50 (2nd instar larvae) | LC50 (4th instar larvae) | Activity against Spodoptera littoralis (in words) (summary of Table 1 data) |
| --- | --- | --- | --- | --- | --- | --- | --- |
| CCOC(=O)NCCOc1ccc(Oc2ccccc2)cc1 [Fenoxycarb, reference compound] | 100% | 100 | 5.94 µg/mL (≈ 19.7 µM) | 59.9 µg/mL (≈ 199 µM) |  |  |  |
| O=C(COC(=O)Nc1ccccc1)NCCOC(=O)Nc1ccccc1 [2-oxo-2-({2-[(phenylcarbamoyl)oxy]ethyl}amino)ethyl phenylcarbamate] |  |  |  | ~81 µg/mL (≈ 227 µM) |  |  |  |
| O=C(COC(=O)Nc1ccccc1)NCCOC(=O)Nc1ccccc1 [2-oxo-2-({2-[(phenylcarbamoyl)oxy]ethyl}amino)ethyl phenylca] [2-oxo-2-({2-[(phenylcarbamoyl)oxy]ethyl}amino)ethyl phenylcarbamate] |  |  |  |  | about 14.80 mg/L |  |  |
| O=C(COC(=O)Nc1ccccc1)NCCOC(=O)Nc1ccccc1 [Compound 2, 2-oxo-2-({2-[(phenylcarbamoyl)oxy]ethyl}amino)ethyl phenylcarbamate] | 40.13% | 73.98 | 14.8 µg/mL (≈ 41.4 µM) |  |  | 80.98 µg/mL (≈ 227 µM) | active against Spodoptera littoralis |
